Columns and labels:
D(2) dopamine receptor [1] = biological target: T1, D(2) dopamine receptor (Homo sapiens, UniProt P14416); test: Displacement of [3H]spiperone from human D2long receptor stably expressed in CHO cell membranes by competitive binding assay
D(2) dopamine receptor [2] = biological target: T1, D(2) dopamine receptor; test: Displacement of [3H]spiperone from human D2short receptor stably expressed in CHO cell membranes by competitive binding assay
D(3) dopamine receptor = D(3) dopamine receptor (Homo sapiens, UniProt P35462); test: Displacement of [3H]spiperone from human D3 receptor stably expressed in CHO cell membranes by competitive binding assay
Chain of D(3) dopamine receptor (P35462 whole entry): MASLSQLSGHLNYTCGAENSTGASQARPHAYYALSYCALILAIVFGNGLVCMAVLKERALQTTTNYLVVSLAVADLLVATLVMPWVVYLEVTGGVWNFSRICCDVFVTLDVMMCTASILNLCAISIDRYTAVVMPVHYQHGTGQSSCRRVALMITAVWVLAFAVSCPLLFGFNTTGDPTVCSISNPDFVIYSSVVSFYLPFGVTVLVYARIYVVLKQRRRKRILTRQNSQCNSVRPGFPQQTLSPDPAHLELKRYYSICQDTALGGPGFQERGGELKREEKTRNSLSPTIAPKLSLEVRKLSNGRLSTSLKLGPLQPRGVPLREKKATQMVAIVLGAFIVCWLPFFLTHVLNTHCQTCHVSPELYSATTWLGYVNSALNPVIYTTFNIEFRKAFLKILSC

D(4) dopamine receptor = biological target: T2, D(4) dopamine receptor (Homo sapiens, UniProt P21917); test: Displacement of [3H]spiperone from human D4.4 receptor stably expressed in CHO cell membranes by competitive binding assay
T2 sequence (P21917 whole entry): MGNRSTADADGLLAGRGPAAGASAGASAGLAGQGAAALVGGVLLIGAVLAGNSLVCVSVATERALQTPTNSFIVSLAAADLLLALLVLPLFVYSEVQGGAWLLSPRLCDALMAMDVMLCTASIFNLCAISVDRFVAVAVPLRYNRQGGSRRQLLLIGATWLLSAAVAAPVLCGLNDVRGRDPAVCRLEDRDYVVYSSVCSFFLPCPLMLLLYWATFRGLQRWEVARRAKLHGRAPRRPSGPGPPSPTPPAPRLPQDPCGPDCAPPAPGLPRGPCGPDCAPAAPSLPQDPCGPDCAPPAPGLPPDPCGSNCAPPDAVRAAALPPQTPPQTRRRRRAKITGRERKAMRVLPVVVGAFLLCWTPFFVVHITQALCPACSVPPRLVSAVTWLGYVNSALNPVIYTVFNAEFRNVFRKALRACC

D(1A) dopamine receptor = D(1A) dopamine receptor (Sus scrofa, UniProt P50130); test: Displacement of [3H]SCH23390 from porcine striatal membranes D1 receptor by competitive binding assay
Chain of D(1A) dopamine receptor (P50130 whole entry): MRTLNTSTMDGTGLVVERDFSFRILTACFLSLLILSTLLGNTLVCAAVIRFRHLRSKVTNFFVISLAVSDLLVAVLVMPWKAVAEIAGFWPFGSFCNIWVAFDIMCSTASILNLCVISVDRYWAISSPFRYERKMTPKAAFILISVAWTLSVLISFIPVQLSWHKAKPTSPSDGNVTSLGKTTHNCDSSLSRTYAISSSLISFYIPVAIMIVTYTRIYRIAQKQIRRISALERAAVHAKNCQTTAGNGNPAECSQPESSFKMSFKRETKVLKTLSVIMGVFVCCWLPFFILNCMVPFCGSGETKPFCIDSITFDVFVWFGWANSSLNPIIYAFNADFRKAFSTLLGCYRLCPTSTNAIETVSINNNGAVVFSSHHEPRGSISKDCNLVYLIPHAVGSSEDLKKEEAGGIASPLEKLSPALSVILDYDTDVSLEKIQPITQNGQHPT

CHO [3] = test: Selectivity ratio of Ki for human D4.4 receptor stably expressed in CHO cell membranes to Ki for human D3 receptor stably expressed in CHO cell membranes; type: cell-based
CHO [4] = test: Selectivity ratio of Ki for human D3 receptor stably expressed in CHO cell membranes to Ki for human D4.4 receptor stably expressed in CHO cell membranes; type: cell-based

T1 sequence (P14416 whole entry): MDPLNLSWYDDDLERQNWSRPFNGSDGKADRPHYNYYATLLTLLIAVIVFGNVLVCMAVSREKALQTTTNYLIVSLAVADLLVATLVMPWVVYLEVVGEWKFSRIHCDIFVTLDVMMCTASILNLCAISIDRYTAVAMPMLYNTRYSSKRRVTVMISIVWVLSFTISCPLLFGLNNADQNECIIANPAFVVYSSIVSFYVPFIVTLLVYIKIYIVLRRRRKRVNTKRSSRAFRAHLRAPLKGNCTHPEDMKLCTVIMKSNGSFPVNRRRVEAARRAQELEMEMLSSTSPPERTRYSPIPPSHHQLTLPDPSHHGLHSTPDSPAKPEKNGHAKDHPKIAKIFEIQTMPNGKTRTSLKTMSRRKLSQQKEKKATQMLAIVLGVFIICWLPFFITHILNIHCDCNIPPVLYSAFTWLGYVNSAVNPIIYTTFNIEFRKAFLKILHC

Structure (SMILES) | Ki (D(2) dopamine receptor [1]) | Ki (D(2) dopamine receptor [2]) | Ki (D(3) dopamine receptor) | Ki (D(4) dopamine receptor) | Ki (D(1A) dopamine receptor) | Ratio Ki (CHO [3]) | Ratio Ki (CHO [4])
O=C(CCCCCCCCCCCCCCCCCCC(=O)OC1(c2ccc(Cl)cc2)CCN(CCCC(=O)c2ccc(F)cc2)CC1)OC1(c2ccc(Cl)cc2)CCN(CCCC(=O)c2ccc(F)cc2)CC1 | 0.025 µM | 0.027 µM | 0.082 µM | 0.16 µM | 1.4 µM |  | 
O=C(CCC(=O)OC1(c2ccc(Cl)cc2)CCN(CCCC(=O)c2ccc(F)cc2)CC1)OC1(c2ccc(Cl)cc2)CCN(CCCC(=O)c2ccc(F)cc2)CC1 | 0.0067 µM | 0.0054 µM | 0.014 µM | 0.024 µM | 0.13 µM | 2 | 
O=C(CCCCCCCCCCCCCCC(=O)OC1(c2ccc(Cl)cc2)CCN(CCCC(=O)c2ccc(F)cc2)CC1)OC1(c2ccc(Cl)cc2)CCN(CCCC(=O)c2ccc(F)cc2)CC1 | 0.14 µM | 0.28 µM | 0.22 µM | 1.4 µM | 6.8 µM |  | 
CN(CCC(=O)OC1(c2ccc(Cl)cc2)CCN(CCCC(=O)c2ccc(F)cc2)CC1)CCN(C)CCC(=O)OC1(c2ccc(Cl)cc2)CCN(CCCC(=O)c2ccc(F)cc2)CC1 | 0.0032 µM | 0.0022 µM | 0.047 µM | 0.029 µM | 0.26 µM |  | 
O=C(CCCCCCCCC(=O)OC1(c2ccc(Cl)cc2)CCN(CCCC(=O)c2ccc(F)cc2)CC1)OC1(c2ccc(Cl)cc2)CCN(CCCC(=O)c2ccc(F)cc2)CC1 | 0.015 µM | 0.031 µM | 0.039 µM | 0.49 µM | 1.4 µM |  | 
O=C(CCC(=O)N1CCC(O)(c2ccc(Cl)cc2)CC1)c1ccc(F)cc1 | 0.86 µM | 0.47 µM | 1.7 µM | 18 µM | 19 µM |  | 
O=C(CCN1CCN(CCC(=O)OC2(c3ccc(Cl)cc3)CCN(CCCC(=O)c3ccc(F)cc3)CC2)CC1)OC1(c2ccc(Cl)cc2)CCN(CCCC(=O)c2ccc(F)cc2)CC1 | 0.0025 µM | 0.0011 µM | 0.0095 µM | 0.033 µM | 0.36 µM |  | 
O=C(CCc1cn(CCOCCOCCOCCn2cc(CCC(=O)OC3(c4ccc(Cl)cc4)CCN(CCCC(=O)c4ccc(F)cc4)CC3)nn2)nn1)OC1(c2ccc(Cl)cc2)CCN(CCCC(=O)c2ccc(F)cc2)CC1 | 0.001 µM | 0.003 µM | 0.0098 µM | 0.041 µM | 0.12 µM |  | 
O=C(CCCCCCCCCCCCCCCCCCCCC(=O)OC1(c2ccc(Cl)cc2)CCN(CCCC(=O)c2ccc(F)cc2)CC1)OC1(c2ccc(Cl)cc2)CCN(CCCC(=O)c2ccc(F)cc2)CC1 | 0.31 µM | 0.28 µM | 0.5 µM | 0.85 µM | 1.5 µM |  | 
CCCCCCCCCC(=O)OC1(c2ccc(Cl)cc2)CCN(CCCC(=O)c2ccc(F)cc2)CC1 [HALOPERIDOL DECANOATE] | 0.0018 µM | 0.00046 µM | 0.0035 µM | 0.0058 µM | 0.14 µM |  | 
O=C(CCCCCCCC(=O)OC1(c2ccc(Cl)cc2)CCN(CCCC(=O)c2ccc(F)cc2)CC1)OC1(c2ccc(Cl)cc2)CCN(CCCC(=O)c2ccc(F)cc2)CC1 | 0.0056 µM | 0.0065 µM | 0.0091 µM | 0.52 µM | 1.2 µM |  | 
O=C(CCCCC(=O)OC1(c2ccc(Cl)cc2)CCN(CCCC(=O)c2ccc(F)cc2)CC1)OC1(c2ccc(Cl)cc2)CCN(CCCC(=O)c2ccc(F)cc2)CC1 | 0.003 µM | 0.0023 µM | 0.011 µM | 0.041 µM | 0.22 µM | 2 | 
O=C(CCCCCC(=O)OC1(c2ccc(Cl)cc2)CCN(CCCC(=O)c2ccc(F)cc2)CC1)OC1(c2ccc(Cl)cc2)CCN(CCCC(=O)c2ccc(F)cc2)CC1 | 0.0033 µM | 0.0026 µM | 0.011 µM | 0.36 µM | 0.28 µM |  | 
O=C(CCCCCCCCCCC(=O)OC1(c2ccc(Cl)cc2)CCN(CCCC(=O)c2ccc(F)cc2)CC1)OC1(c2ccc(Cl)cc2)CCN(CCCC(=O)c2ccc(F)cc2)CC1 | 0.066 µM | 0.046 µM | 0.21 µM | 2.2 µM | 1.1 µM |  | 
CC(=O)OC1(c2ccc(Cl)cc2)CCN(CCCC(=O)c2ccc(F)cc2)CC1 | 0.0045 µM | 0.0045 µM | 0.056 µM | 0.0093 µM | 0.059 µM |  | 8
Cc1ccc(C(=O)OC2(c3ccc(Cl)cc3)CCN(CCCC(=O)c3ccc(F)cc3)CC2)cc1 | 0.056 µM | 0.047 µM | 0.27 µM | 0.13 µM | 0.55 µM |  | 
O=C(CCCCCCC(=O)OC1(c2ccc(Cl)cc2)CCN(CCCC(=O)c2ccc(F)cc2)CC1)OC1(c2ccc(Cl)cc2)CCN(CCCC(=O)c2ccc(F)cc2)CC1 | 0.0025 µM | 0.0029 µM | 0.0064 µM | 0.3 µM | 0.92 µM |  | 
CN(C)CCC(=O)OC1(c2ccc(Cl)cc2)CCN(CCCC(=O)c2ccc(F)cc2)CC1 | 0.0019 µM | 0.0018 µM | 0.03 µM | 0.0087 µM | 0.2 µM |  | 
O=C(CCCCCCCCCCCCC(=O)OC1(c2ccc(Cl)cc2)CCN(CCCC(=O)c2ccc(F)cc2)CC1)OC1(c2ccc(Cl)cc2)CCN(CCCC(=O)c2ccc(F)cc2)CC1 | 0.12 µM | 0.062 µM | 0.16 µM | 0.49 µM | 1.4 µM |  | 
O=C(CCCC(=O)OC1(c2ccc(Cl)cc2)CCN(CCCC(=O)c2ccc(F)cc2)CC1)OC1(c2ccc(Cl)cc2)CCN(CCCC(=O)c2ccc(F)cc2)CC1 | 0.012 µM | 0.012 µM | 0.031 µM | 0.033 µM | 0.22 µM |  | 
O=C(CCc1cn(CCCCCCCCn2cc(CCC(=O)OC3(c4ccc(Cl)cc4)CCN(CCCC(=O)c4ccc(F)cc4)CC3)nn2)nn1)OC1(c2ccc(Cl)cc2)CCN(CCCC(=O)c2ccc(F)cc2)CC1 | 0.0013 µM | 0.0016 µM | 0.0018 µM | 0.019 µM | 0.049 µM |  | 
O=C(CCc1cn(CCOCCOCCOCCOCCn2cc(CCC(=O)OC3(c4ccc(Cl)cc4)CCN(CCCC(=O)c4ccc(F)cc4)CC3)nn2)nn1)OC1(c2ccc(Cl)cc2)CCN(CCCC(=O)c2ccc(F)cc2)CC1 | 0.0016 µM | 0.0038 µM | 0.019 µM | 0.046 µM | 0.15 µM |  | 
O=C(CCc1cn(CCCCCCCCCCn2cc(CCC(=O)OC3(c4ccc(Cl)cc4)CCN(CCCC(=O)c4ccc(F)cc4)CC3)nn2)nn1)OC1(c2ccc(Cl)cc2)CCN(CCCC(=O)c2ccc(F)cc2)CC1 | 0.0049 µM | 0.0054 µM | 0.0059 µM | 0.089 µM | 0.086 µM |  | 
CCC(=O)OC1(c2ccc(Cl)cc2)CCN(CCCC(=O)c2ccc(F)cc2)CC1 | 0.0039 µM | 0.0016 µM | 0.041 µM | 0.0025 µM | 0.072 µM |  | 8
O=C(CCCCCCCCCCCCCCCCC(=O)OC1(c2ccc(Cl)cc2)CCN(CCCC(=O)c2ccc(F)cc2)CC1)OC1(c2ccc(Cl)cc2)CCN(CCCC(=O)c2ccc(F)cc2)CC1 | 0.16 µM | 0.15 µM | 0.38 µM | 0.57 µM | 0.93 µM |  | 

Source: ChEMBL document CHEMBL3352709, “Synthesis and binding profile of haloperidol-based bivalent ligands targeting dopamine D(2)-like receptors” (Bioorg Med Chem Lett, 2014)
